Results reported in PubChem BioAssay (NCI).
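Here, GI50 denotes the concentration required for 50% inhibition of growth. The concentration for full growth arrest is given as TGI.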

Key:
Test in all cases: inhibition of tumour cell growth, NCI panel, 384-well format
RXF 393 renal = tested on: RXF 393 renal
IGROV1 ovarian = tested on: IGROV1 ovarian
HOP-92 NSCLC = tested on: HOP-92 NSCLC
HCT-15 colon = tested on: HCT-15 colon
OVCAR-8 ovarian = tested on: OVCAR-8 ovarian
TK-10 renal = tested on: TK-10 renal
MALME-3M melanoma = tested on: MALME-3M melanoma
HCT-116 colon = tested on: HCT-116 colon
SNB-19 CNS = tested on: SNB-19 CNS
M14 melanoma = tested on: M14 melanoma
SN12C renal = tested on: SN12C renal
COLO 205 colon = tested on: COLO 205 colon
786-0 renal = tested on: 786-0 renal
MCF7 breast = tested on: MCF7 breast
CAKI-1 renal = tested on: CAKI-1 renal
MDA-MB-468 breast = tested on: MDA-MB-468 breast
OVCAR-3 ovarian = tested on: OVCAR-3 ovarian
U251 glioblastoma = tested on: U251 glioblastoma
SW-620 colon = tested on: SW-620 colon
UACC-62 melanoma = tested on: UACC-62 melanoma
ACHN renal = tested on: ACHN renal
UO-31 renal = tested on: UO-31 renal
MDA-MB-231 breast = tested on: MDA-MB-231 breast
PC-3 prostate = tested on: PC-3 prostate
SF-268 CNS = tested on: SF-268 CNS
SK-MEL-5 melanoma = tested on: SK-MEL-5 melanoma
KM12 colon = tested on: KM12 colon
UACC-257 melanoma = tested on: UACC-257 melanoma
SR leukemia = tested on: SR leukemia
A549 NSCLC = tested on: A549 NSCLC
OVCAR-5 ovarian = tested on: OVCAR-5 ovarian
NCI-H226 lung = tested on: NCI-H226 lung
NCI-H522 lung = tested on: NCI-H522 lung
SF-539 CNS = tested on: SF-539 CNS
T-47D breast = tested on: T-47D breast
NCI-H460 NSCLC = tested on: NCI-H460 NSCLC
OVCAR-4 ovarian = tested on: OVCAR-4 ovarian
NCI-H322M lung = tested on: NCI-H322M lung
MOLT-4 leukemia = tested on: MOLT-4 leukemia
SK-MEL-28 melanoma = tested on: SK-MEL-28 melanoma
MDA-MB-435 melanoma = tested on: MDA-MB-435 melanoma
CCRF-CEM leukemia = tested on: CCRF-CEM leukemia
HL-60(TB) leukemia = tested on: HL-60(TB) leukemia
SK-MEL-2 melanoma = tested on: SK-MEL-2 melanoma
NCI/ADR-RES ovarian = tested on: NCI/ADR-RES ovarian
RPMI-8226 leukemia = tested on: RPMI-8226 leukemia
SF-295 CNS = tested on: SF-295 CNS
HCC-2998 colon = tested on: HCC-2998 colon
BT-549 breast = tested on: BT-549 breast
DU-145 prostate = tested on: DU-145 prostate
HT29 colon = tested on: HT29 colon
NCI-H23 lung = tested on: NCI-H23 lung
LOX IMVI melanoma = tested on: LOX IMVI melanoma
A498 renal = tested on: A498 renal
HOP-62 NSCLC = tested on: HOP-62 NSCLC
SK-OV-3 ovarian = tested on: SK-OV-3 ovarian

For `Cc1ccc(NC(=O)c2ccc(CN3CC[C@H](N(C)C)C3)c(C(F)(F)F)c2)cc1Nc1nccc(-c2cncnc2)n1`, the GI50 (RXF 393 renal) was 1.52 µM, the TGI (RXF 393 renal) was 3.22 µM and the GI50 (IGROV1 ovarian) was 3.68 µM. The TGI (IGROV1 ovarian) was 13.9 µM, the GI50 (HOP-92 NSCLC) was 1.64 µM and the TGI (HOP-92 NSCLC) was 3.14 µM. The GI50 (HCT-15 colon) was 2.49 µM, the TGI (HCT-15 colon) was 5.66 µM and the GI50 (OVCAR-8 ovarian) was 2.19 µM. It also gave a TGI (OVCAR-8 ovarian) of 5.3 µM, a GI50 (TK-10 renal) of 2.2 µM and a TGI (TK-10 renal) of 4.71 µM. For the same compound, the GI50 (MALME-3M melanoma) was 0.147 µM, the TGI (MALME-3M melanoma) was 0.436 µM and the GI50 (HCT-116 colon) was 1.38 µM. The TGI (HCT-116 colon) was 2.74 µM, the GI50 (SNB-19 CNS) was 4.56 µM and the TGI (SNB-19 CNS) was 13.6 µM. It also gave a GI50 (M14 melanoma) of 0.233 µM, a TGI (M14 melanoma) of 0.811 µM and a GI50 (SN12C renal) of 2.58 µM. For the same compound, the TGI (SN12C renal) was 6.55 µM, the GI50 (COLO 205 colon) was 0.396 µM and the TGI (COLO 205 colon) was 1.78 µM. For the same compound, the GI50 (786-0 renal) was 1.89 µM, the TGI (786-0 renal) was 3.47 µM and the GI50 (MCF7 breast) was 2.31 µM. For the same compound, the TGI (MCF7 breast) was 7.76 µM, the GI50 (CAKI-1 renal) was 2.86 µM and the TGI (CAKI-1 renal) was 6.72 µM. The GI50 (MDA-MB-468 breast) was 2.18 µM, the TGI (MDA-MB-468 breast) was 3.66 µM and the GI50 (OVCAR-3 ovarian) was 2.4 µM. For the same compound, the TGI (OVCAR-3 ovarian) was 5.42 µM, the GI50 (U251 glioblastoma) was 1.95 µM and the TGI (U251 glioblastoma) was 3.76 µM. The GI50 (SW-620 colon) was 3.08 µM, the TGI (SW-620 colon) was 10.6 µM and the GI50 (UACC-62 melanoma) was 0.318 µM. It also gave a TGI (UACC-62 melanoma) of 1.29 µM, a GI50 (ACHN renal) of 1.84 µM and a TGI (ACHN renal) of 4.1 µM. For the same compound, the GI50 (UO-31 renal) was 2 µM, the TGI (UO-31 renal) was 4.13 µM and the GI50 (MDA-MB-231 breast) was 1.75 µM. It also gave a TGI (MDA-MB-231 breast) of 3.24 µM, a GI50 (PC-3 prostate) of 3.38 µM and a TGI (PC-3 prostate) of 8.45 µM. For the same compound, the GI50 (SF-268 CNS) was 2.72 µM, the TGI (SF-268 CNS) was 6.99 µM and the GI50 (SK-MEL-5 melanoma) was 0.674 µM. It also gave a TGI (SK-MEL-5 melanoma) of 1.99 µM, a GI50 (KM12 colon) of 2.51 µM and a TGI (KM12 colon) of 5.92 µM. For the same compound, the GI50 (UACC-257 melanoma) was 0.43 µM, the TGI (UACC-257 melanoma) was 1.76 µM and the GI50 (SR leukemia) was 1.82 µM. It also gave a TGI (SR leukemia) of 3.23 µM, a GI50 (A549 NSCLC) of 3.01 µM and a TGI (A549 NSCLC) of 10.9 µM. It also gave a GI50 (OVCAR-5 ovarian) of 1.86 µM, a TGI (OVCAR-5 ovarian) of 4.57 µM and a GI50 (NCI-H226 lung) of 2.09 µM. For the same compound, the TGI (NCI-H226 lung) was 5.07 µM, the GI50 (NCI-H522 lung) was 1.52 µM and the TGI (NCI-H522 lung) was 3.4 µM. For the same compound, the GI50 (SF-539 CNS) was 1.43 µM, the TGI (SF-539 CNS) was 2.75 µM and the GI50 (T-47D breast) was 1.53 µM. For the same compound, the TGI (T-47D breast) was 3.06 µM, the GI50 (NCI-H460 NSCLC) was 1.67 µM and the TGI (NCI-H460 NSCLC) was 3.35 µM. It also gave a GI50 (OVCAR-4 ovarian) of 2.43 µM, a TGI (OVCAR-4 ovarian) of 6.6 µM and a GI50 (NCI-H322M lung) of 3.92 µM. The TGI (NCI-H322M lung) was 12.8 µM, the GI50 (MOLT-4 leukemia) was 1.78 µM and the TGI (MOLT-4 leukemia) was 3.17 µM. It also gave a GI50 (SK-MEL-28 melanoma) of 0.304 µM, a TGI (SK-MEL-28 melanoma) of 1.13 µM and a GI50 (MDA-MB-435 melanoma) of 1.05 µM. For the same compound, the TGI (MDA-MB-435 melanoma) was 3.51 µM, the GI50 (CCRF-CEM leukemia) was 1.99 µM and the TGI (CCRF-CEM leukemia) was 3.44 µM. It also gave a GI50 (HL-60(TB) leukemia) of 0.433 µM, a TGI (HL-60(TB) leukemia) of 1.31 µM and a GI50 (SK-MEL-2 melanoma) of 1.2 µM. It also gave a TGI (SK-MEL-2 melanoma) of 2.46 µM, a GI50 (NCI/ADR-RES ovarian) of 3.88 µM and a TGI (NCI/ADR-RES ovarian) of 13.3 µM. For the same compound, the GI50 (RPMI-8226 leukemia) was 1.34 µM, the TGI (RPMI-8226 leukemia) was 2.62 µM and the GI50 (SF-295 CNS) was 1.9 µM. For the same compound, the TGI (SF-295 CNS) was 3.42 µM, the GI50 (HCC-2998 colon) was 1.16 µM and the TGI (HCC-2998 colon) was 2.64 µM. For the same compound, the GI50 (BT-549 breast) was 3.96 µM, the TGI (BT-549 breast) was 10 µM and the GI50 (DU-145 prostate) was 6.8 µM. The TGI (DU-145 prostate) was 18.9 µM, the GI50 (HT29 colon) was 0.947 µM and the TGI (HT29 colon) was 2.19 µM. It also gave a GI50 (NCI-H23 lung) of 2.06 µM, a TGI (NCI-H23 lung) of 7.78 µM and a GI50 (LOX IMVI melanoma) of 1.03 µM. The TGI (LOX IMVI melanoma) was 2.22 µM, the GI50 (A498 renal) was 2.69 µM and the TGI (A498 renal) was 6.22 µM. For the same compound, the GI50 (HOP-62 NSCLC) was 2.19 µM, the TGI (HOP-62 NSCLC) was 6.54 µM and the GI50 (SK-OV-3 ovarian) was 2.09 µM. It also gave a TGI (SK-OV-3 ovarian) of 4.53 µM.
